# Tests used:
# [1] = Sensory evaluation of off-taste suppressing effect in 0.8 wt % potassium chloride aqueous solution (Experimental Examples 1 and 2)
# [2] = Sensory evaluation in 0.06 wt % acesulfame potassium aqueous solution (Experimental Example 10); settings: summary of Table 24
# Description: Each compound shown in the following Table 24 was added to a 0.06 wt % acesulfame potassium aqueous solution (an aqueous solution prepared by dissolving acesulfame potassium (0.06 parts by weight) in water (99.94 parts by weight)) so as to achieve the concentration (addition concentration) shown in the following Table 24 to prepare each evaluation sample.
# (§1) Based on the following evaluation criteria, a panel of four experts determined by consensus the intensity of off-tastes (bitter taste) derived from acesulfame potassium in each evaluation sample, by comparison with a 0.06 wt % acesulfame potassium aqueous solution without addition of any compound (negative control).
# [3] = Sensory evaluation in 0.12 wt % aspartame aqueous solution (Experimental Example 12); settings: Table 26
# Description: Each compound shown in the following Table 26 was added to a 0.12 wt % aspartame aqueous solution (an aqueous solution prepared by dissolving aspartame (0.12 parts by weight) in ion exchange water (99.88 parts by weight)) so as to achieve the concentration (addition concentration) shown in the following Table 26 to prepare each evaluation sample.
# as §1, with “three” for “four”, “(bitter taste, harsh taste, metallic” for “(bitter”, “aspartame” for “acesulfame potassium”, “0.12” for “0.06”
# [4] = Sensory evaluation in soy protein aqueous solution (Experimental Example 13); settings: Table 27
# Description: Each compound shown in the following Table 27 was added to an aqueous solution prepared by dissolving powdered soy protein (4 parts by weight) in water (96 parts by weight) (hereinafter at times referred to as soy protein aqueous solution) so as to achieve the concentration (addition concentration) shown in the following Table 27 to prepare each evaluation sample. Here, the powdered soy protein manufactured by FUJI OIL CO., LTD. was used.
# as §1, with “(bitter taste, harsh taste, astringent” for “(bitter”, “soy protein” for “acesulfame potassium”, “soy protein” for “0.06 wt % acesulfame potassium”
# [5] = Sensory evaluation in granular fava bean protein (Experimental Example 16); settings: Table 30
# Description: Each compound shown in the following Table 30 was added to granular fava bean protein (manufactured by Schouten) so as to achieve the concentration (addition concentration) shown in the following Table 30 to prepare each evaluation sample.
# Based on the following evaluation criteria, a panel of four experts determined by consensus the intensity of off-tastes (bitter taste, harsh taste, astringent taste) derived from fava bean protein in each evaluation sample, by comparison with granular fava bean protein without addition of any compound (negative control).
# [6] = Sensory evaluation in ramen noodle soup solution with potassium chloride (Experimental Example 3)
# Description: As shown in the following (1) to (3) below, 0.8 wt % of potassium chloride was added to a food base powder corresponding to 0.5 wt % of sodium chloride to prepare each base solution having an off-taste derived from potassium chloride.
# Potassium chloride (0.8 g) was added to a soup powder (1.1 g) of a commercially available instant ramen noodle (manufactured by SANYO FOODS Co., Ltd., trade name “Sapporo Ichiban Shouyuaji”), hot water (98.1 g) was added to dissolve the mixture to prepare a base solution (ramen noodle soup solution).
# Each compound shown in the following Tables 15 to 17 was added to each base solution (ramen noodle soup solution, chicken broth solution, potage solution) so as to achieve the concentration (addition concentration) shown in the following Tables 15 to 17 to prepare each evaluation sample.
# By a method similar to that in Experimental Example 1, a panel of two experts determined the intensity of off-tastes (bitter taste, metallic taste, harsh taste, astringent taste) derived from potassium chloride in each evaluation sample.
# [7] = Sensory evaluation in BCAA sweetness aqueous solution (Experimental Example 6); parameters: key to off-taste suppressing effect: ±: no change from negative control; −: slightly suppressed compared to negative control; −−: suppressed compared to negative control (same level of intensity as BCAA sweetness aqueous solution in which total concentration of leucine, isoleucine, and valine (weight ratio=2:1:1) exceeds 0.8 wt % and is not more than 0.9 wt %); −−−: considerably suppressed compared to negative control (same level of intensity as BCAA sweetness aqueous solution in which total concentration of leucine, isoleucine, and valine (weight ratio=2:1:1) is not more than 0.8 wt %)
# Description: Each compound shown in the following Table 20 was added to an aqueous solution prepared by dissolving leucine (0.50 parts by weight), isoleucine (0.25 parts by weight), valine (0.25 parts by weight), and granulated sugar (4 parts by weight) in ion exchange water (95 parts by weight) (hereinafter at times referred to as BCAA sweetness aqueous solution) so as to achieve the concentration (addition concentration) shown in the following Table 20 to prepare each evaluation sample.
# as §1, with “(bitter taste, harsh” for “(bitter”, “amino acid” for “acesulfame potassium”, “BCAA sweetness” for “0.06 wt % acesulfame potassium”
# [8] = 0.8 wt % potassium chloride aqueous solution, addition concentration 100 weight ppb (12.5 weight ppm with respect to potassium chloride)
# [9] = 0.8 wt % potassium chloride aqueous solution, addition concentration 500 weight ppb (62.5 weight ppm with respect to potassium chloride)
# [10] = potassium chloride aqueous solutions, Tables 1 to 14
# [11] = 0.8 wt % potassium chloride aqueous solution, addition concentration 50 weight ppb (6.25 weight ppm with respect to potassium chloride)
SMILES,"off-taste suppressing effect [1, 8]","off-taste suppressing effect [1, 9]","off-taste suppressing effect ([1]; 0.8 wt % potassium chloride aqueous solution, addition concentration 1000 weight ppb (125 weight ppm with respect to potassium chloride))","off-taste suppressing effect ([1]; 0.8 wt % potassium chloride aqueous solution, addition concentration 2000 weight ppb (250 weight ppm with respect to potassium chloride))","intensity of off-tastes (bitter taste, metallic taste, harsh taste, astringent taste) derived from potassium chloride [1, 10]",intensity of off-tastes (bitter taste) derived from acesulfame potassium [2],"intensity of off-tastes (bitter taste, harsh taste, metallic taste) derived from aspartame [3]","intensity of off-tastes (bitter taste, harsh taste, astringent taste) derived from soy protein [4]","intensity of off-tastes (bitter taste, harsh taste, astringent taste) derived from fava bean protein [5]","off-taste suppressing effect [1, 11]","off-taste suppressing effect ([1]; in words, potassium chloride aqueous solutions, Tables 1 to 14)","off-taste suppressing effect ([6]; Ramen noodle soup solution with 0.8 wt % potassium chloride, addition concentration 100 ppb (12.5 weight ppm with respect to potassium chloride))","intensity of off-tastes (bitter taste, metallic taste, harsh taste, astringent taste) derived from potassium chloride ([6]; base solutions of Tables 15 to 17 (ramen noodle soup, chicken broth, potage))",off-taste suppressing effect ([7]; addition concentration 10 weight ppb (1 weight ppm with respect to amino acid)),off-taste suppressing effect ([7]; addition concentration 50 weight ppb (5 weight ppm with respect to amino acid)),off-taste suppressing effect ([7]; addition concentration 100 weight ppb (10 weight ppm with respect to amino acid)),off-taste suppressing effect ([7]; addition concentration 200 weight ppb (20 weight ppm with respect to amino acid)),"intensity of off-tastes (bitter taste, harsh taste) derived from amino acid (branched chain amino acid) ([7]; summary of Table 20)","off-taste suppressing effect ([1]; 0.8 wt % potassium chloride aqueous solution, addition concentration 10 weight ppb (1.25 weight ppm with respect to potassium chloride))"
CC(=O)c1ccc(C)o1 [2-acetyl-5-methylfuran],+ (intensity of the same level as potassium chloride aqueous solution with potassium chloride concentration of not less than 0.75 wt % and less than 0.8 wt %),++ (intensity of the same level as potassium chloride aqueous solution with potassium chloride concentration of not less than 0.7 wt % and less than 0.75 wt %),+ (intensity of the same level as potassium chloride aqueous solution with potassium chloride concentration of not less than 0.75 wt % and less than 0.8 wt %),+ (intensity of the same level as potassium chloride aqueous solution with potassium chloride concentration of not less than 0.75 wt % and less than 0.8 wt %),decreased,suppressed,suppressed,suppressed,suppressed,,,,,,,,,,
CC(=O)c1ccco1 [2-acetylfuran],+++ (intensity of the same level as potassium chloride aqueous solution with potassium chloride concentration of not less than 0.65 wt % and less than 0.7 wt %),+ (intensity of the same level as potassium chloride aqueous solution with potassium chloride concentration of not less than 0.75 wt % and less than 0.8 wt %),,,decreased,suppressed,suppressed,suppressed,suppressed,++ (intensity of the same level as potassium chloride aqueous solution with potassium chloride concentration of not less than 0.7 wt % and less than 0.75 wt %),high,+++ (intensity of the same level as potassium chloride aqueous solution with potassium chloride concentration of not less than 0.65 wt % and less than 0.7 wt %),decreased,−,"−− (suppressed compared to negative control (same level of intensity as BCAA sweetness aqueous solution in which total concentration of leucine, isoleucine, and valine (weight ratio=2:1:1) exceeds 0.8 wt % and is not more than 0.9 wt %))","−− (suppressed compared to negative control (same level of intensity as BCAA sweetness aqueous solution in which total concentration of leucine, isoleucine, and valine (weight ratio=2:1:1) exceeds 0.8 wt % and is not more than 0.9 wt %))","−− (suppressed compared to negative control (same level of intensity as BCAA sweetness aqueous solution in which total concentration of leucine, isoleucine, and valine (weight ratio=2:1:1) exceeds 0.8 wt % and is not more than 0.9 wt %))",suppressed,
CC1OCCC1=O (stereo not shown) [2-methyltetrahydrofuran-3-one],++ (intensity of the same level as potassium chloride aqueous solution with potassium chloride concentration of not less than 0.7 wt % and less than 0.75 wt %),+ (intensity of the same level as potassium chloride aqueous solution with potassium chloride concentration of not less than 0.75 wt % and less than 0.8 wt %),,,decreased,suppressed,suppressed,suppressed,suppressed,++ (intensity of the same level as potassium chloride aqueous solution with potassium chloride concentration of not less than 0.7 wt % and less than 0.75 wt %),,,,,,,,,++ (intensity of the same level as potassium chloride aqueous solution with potassium chloride concentration of not less than 0.7 wt % and less than 0.75 wt %)

# — patent publication US20220279826A1, “OFF-FLAVOR SUPPRESSING AGENT” (AJINOMOTO CO., INC., priority 2019, published 2022)
